Values belong to the compound of their own block, whether it stands above or below them.
Experiments:
[1] = test system: firefly luciferase-holoCA fusion protein
From the text: The free zinc concentration can be related to the amount of orange emission, or preferably to the levels of luciferase emission and ultimate acceptor emission, or their ratio, which is proportional to zinc concentration.

apoNanoLuc-CA = assay: bioluminescence emission of NanoLuc-CA with fluorescent sulfonamide and competing sulfonamide (FIG. 4); format: binding, human; conditions: 19 nM free Zn, after addition of competing nonfluorescent sulfonamide
From the text: In another preferred embodiment the luciferase gene fused to the human carbonic anhydrase II gene is from a variant of the luciferase isolated from the deep sea shrimp Oplophorus gracilirostris (offered commercially by Promega as Nanoluc), and the luciferin is a coelenterazine derivative called furimazine (“Engineered Luciferase Reporter from a Deep Sea Shrimp Utilizing a Novel Imidazopyrazinone Substrate” by Mary P. Hall †, James Unch ‡, Brock F. Binkowski †, Michael P. Valley †, Braeden L. Butler †, Monika G. Wood †, Paul Otto †, Kristopher Zimmerman †, Gediminas Vidugiris †, Thomas Machleidt †, Matthew B. Robers †, Hélène A. Benink †, Christopher T. Eggers †, Michael R. Slater †, Poncho L. Meisenheimer ‡, Dieter H. Klaubert ‡, Frank Fan †, Lance P. Encell *†, and Keith V. Wood † ACS Chem. Biol., 2012, 7 (11), pp 1848-1857DOI: 10.1021/cb3002478). […] An important advantage of this ratiometric approach is that it is essentially independent of time-dependent changes in bioluminescence emission, which are frequently observed. […]

[2] = molecular target: wild type human carbonic anhydrase II (Homo sapiens, UniProt P00918); conditions: free zinc ion, read-out: KD for binding to carbonic anhydrase; cited from earlier work

- displacement of LISSAMINE rhodamine sulfonamide from holoCA sulfonamide binding site [1]: completely displaced
Compound: CC(=O)Nc1nnc(S(N)(=O)=O)s1 [acetazolamide]

- specificity of sulfonamide binding (apoNanoLuc-CA): specific
Compound: fluorescein thioureidyl ethyl phenyl sulfonamide [fluorescein sulfonamide]

Compound: zinc ion
- Kd [2]: ~4 pM

From patent US9193990B2, “Bioluminescent metal ion assay” (priority 2013, dated 2015)
